Data set [1] has as its system Spodoptera frugiperda. Kind of data set: Spodoptera frugiperda - spray test (SPODFR). Format: in vivo. Conditions: application rate 100 g/ha, maize leaf disks. How it is done: Spodoptera frugiperda—Spray Test (SPODFR)
Solvent: 78.0 parts by weight of acetone • • 1.5 parts by weight of dimethylformamide
Emulsifier: 0.5 parts by weight of alkylaryl polyglycol ether
To produce a suitable active compound preparation, 1 part by weight of active compound is mixed with the stated amounts of solvent and emulsifier, and the concentrate is diluted with emulsifier-containing water to the desired concentration.
Leaf disks of maize (Zea mays) are sprayed with an active compound preparation of the desired concentration and, after drying, populated with caterpillars of the armyworm (Spodoptera frugiperda).
After the desired period of time, the efficacy in % is determined. 100% means that all the caterpillars have been killed; 0% means that no caterpillars have been killed.

A short description of data set [2]: log P by HPLC on reversed-phase column (C18), EEC directive 79/831 Annex V.A8. The following applies: for log p: data refer to the E isomer. Format: physicochemical. How it is done: The log P values reported in the tables and Preparation Examples above were determined in accordance with EEC directive 79/831 Annex V.A8 by HPLC (High Performance Liquid Chromatography) using a reversed-phase column (C18). Temperature 43° C. The calibration is effected with unbranched alkan-2-ones (having 3 to 16 carbon atoms), for which the log P values are known.

Setting [3] is: reversed-phase HPLC column (C18), HPLC-MS data in the preparation text, HPLC reversed-phase C18, 43° C., read-out: log P.
Setting [4] is: Table A, HPLC reversed-phase C18, 43° C.

Each structure is given as a SMILES string. Where two headings read alike, the source gives them in different places.

Turning to `CON=Cc1cc(C)c(NC(=O)c2cc(OC(C)C)nn2-c2ncccc2Cl)c(C(=O)NC2COC2)c1` (mixture of isomers) [B-07], in data set [1], the “efficacy (caterpillars killed)” value was 100%. In data set [2] (Table B, HPLC reversed-phase C18, 43° C.), this compound gave a log p of 2.57.
On to `O=C(O)c1cc(OCC(F)F)nn1-c1ncccc1Cl` [1-(3-Chloropyridin-2-yl)-3-(2,2-difluoroethoxy)-1H-pyrazole-5-carboxylic acid], for which, in data set [2] (setting [3]), the chromatographic logP came out at 1.59.
Regarding `CO/N=C/c1cc(C)c(NC(=O)c2cc(OC(F)F)nn2-c2ncccc2Cl)c(C(=O)NN)c1` [1-(3-Chloropyridin-2-yl)-3-(difluoromethoxy)-N-{2-(hydrazinocarbonyl)-4-[(E)-(methoxyimino)methyl]-6-methylphenyl}-1H-pyrazole-5-carboxamide], the chromatographic logP in data set [2] (log P) came to 2.12.
Take `O=C(O)c1cc(CF)nn1-c1ncccc1Cl` [1-(3-Chloropyridin-2-yl)-3-(fluoromethyl)-1H-pyrazole-5-carboxylic acid]: the chromatographic logP in data set [2] (setting [3]) was 1.03.
On the same count and under the same terms, with `CCOc1cc(C(=O)O)n(-c2ncccc2Cl)n1` [1-(3-chloropyridin-2-yl)-3-ethoxy-1H-pyrazole-5-carboxylic acid] the figure was 1.47; with `CC(C)Oc1cc(C(=O)O)n(-c2ncccc2Cl)n1` [1-(3-chloropyridin-2-yl)-3-isopropoxy-1H-pyrazole-5-carboxylic acid], 1.76.
Still for that read-out and setting: with `O=C(O)c1cc(OCc2ccc(C(F)(F)F)nc2)nn1-c1ncccc1Cl` [1-(3-chloropyridin-2-yl)-3-{[6-(trifluoromethyl)pyridin-3-yl]methoxy}-1H-pyrazole-5-carboxylic acid] the figure was 1.59; with `CON=Cc1cc(C)c2nc(-c3cc(OCC(F)F)nn3-c3ncccc3Cl)oc(=O)c2c1` [2-[1-(3-Chloropyridin-2-yl)-3-(2,2-difluoroethoxy)-1H-pyrazol-5-yl]-8-methyl-4-oxo-4H-3,1-benzoxazine-6-carbaldehyde O-methyl oxime], 3.92; with `CON=Cc1cc(C)c2nc(-c3cc(OC(F)F)nn3-c3ncccc3Cl)oc(=O)c2c1` [2-[1-(3-Chloropyridin-2-yl)-3-(difluoromethoxy)-1H-pyrazol-5-yl]-8-methyl-4-oxo-4H-3,1-benzoxazine-6-carbaldehyde O-methyl oxime], 3.93.
Consider `C=CCOC(=O)NN(C)C(=O)c1cc(C=NOC)cc(C)c1NC(=O)c1cc(Br)nn1-c1ncccc1Cl` [A-07], for which, in data set [1], the “efficacy (caterpillars killed)” value is recorded as 100%. Moreover, the log p in data set [2] (setting [4]) is reported as 3.12.
On the same counts, the results for `CON=Cc1cc(C)c(NC(=O)c2cc(Br)nn2-c2ncccc2Cl)c(C(=O)N(NS(C)(=O)=O)S(C)(=O)=O)c1` [A-12] are 100% and 2.99.
As to `CON=Cc1cc(C)c(NC(=O)c2cc(Br)nn2-c2ncccc2Cl)c(C(=O)N(C)NC(=O)OC(C)C)c1` [A-16], the “efficacy (caterpillars killed)” value in data set [1] stood at 100%. In data set [2] (setting [4]), this compound showed a log p of 3.28.
Taken in the same sequence, the figures for `CCOC(=O)NN(C)C(=O)c1cc(C=NOC)cc(C)c1NC(=O)c1cc(C(F)(F)F)nn1-c1ncccc1Cl` [A-24] were 100% and 3.31.
In data set [2] (Table C, HPLC reversed-phase C18, 43° C.), `CON=Cc1cc(C)c(NC(=O)c2cc(OC)nn2-c2ncccc2Cl)c(C(=O)N(C)C)c1` [C-40] displayed a log p of 2.16.
For `CCOC(=O)c1cc(OCC(F)F)nn1-c1ncccc1Cl` [Ethyl 1-(3-chloropyridin-2-yl)-3-(2,2-difluoroethoxy)-1H-pyrazole-5-carboxylate], the chromatographic logP in data set [2] (setting [3]) was found to be 2.74.
On the same count and under the same terms, next, `Cc1cc(C=O)cc(C(=O)O)c1N` [IX-1, 2-Amino-5-formyl-3-methylbenzoic acid]: 1.02; `COC(=O)c1cc(CF)nn1-c1ncccc1Cl` [Methyl 1-(3-chloropyridin-2-yl)-3-(fluoromethyl)-1H-pyrazole-5-carboxylate]: 1.9.
The same measure, in the same setting: next, `CO/N=C/c1cc(C)c(N)c(C(=O)O)c1` [VIII-1, 2-Amino-5-[(E)-(methoxyimino)methyl]-3-methylbenzoic acid]: 1.73.

For the origin of these results see US9609868B2, “Alkoximino-substituted anthranilic acid diamides as pesticides” (BAYER CROPSCIENCE AKTIENGESELLSCHAFT, priority 2013, dated 2017).
